Legend:
[1] = background statement; cited from earlier work
[2] = Sensory evaluation (taste test) of Reb D3 against sucrose controls by a panel of nine volunteers; assay type: in vivo, human; settings: for overall % sweetness equivalence (SE) average: room temperature, vs 1.0%, 3.0%, 6.0% sucrose (w/v), nine volunteers
Procedure: In this Example, a taste test was conducted on Reb D3.
Sensory evaluation of Reb D3 was performed using sucrose as a control. The sucrose sample purchased from Sigma-Aldrich and prepared control samples at three different concentrations of 1.0%, 3.0%, and 6.0% sucrose in bottled water (w/v) at room temperature. The steviol glycoside Reb D3 at 300, and 600 ppm for sensory evaluation was prepared by adding corresponding mass into a 1000 mL of bottled water. The mixture was stirred at room temperature and the steviol glycoside sample was then evaluated against several control sucrose samples at 1.0%, 3.0%, and 6.0% by a panel of nine volunteers.

[3] = Solubility in water of Reb D3 compared to Reb D; assay type: physicochemical
Source text: In this Example, the solubility of Reb D3 was compared to Reb D.

In the case of C=C1C[C@@]23CC[C@H]4[C@@](C)(CCC[C@@]4(C)C(=O)O[C@@H]4O[C@H](CO)[C@@H](O)[C@H](O)[C@H]4O)[C@@H]2CC[C@]1(O[C@@H]1O[C@H](CO)[C@@H](O)[C@H](O[C@@H]2O[C@H](CO)[C@@H](O)[C@H](O)[C@H]2O)[C@H]1O[C@@H]1O[C@@H](C)[C@H](O)[C@@H](O)[C@H]1O)C3 [Rebaudioside C], the “times sweeter than sucrose” value [1] is listed as 40-60 times.
In the case of C=C1C[C@@]23CC[C@H]4[C@@](C)(CCC[C@@]4(C)C(=O)O[C@@H]4O[C@H](CO)[C@@H](O)[C@H](O)[C@H]4O)[C@@H]2CC[C@]1(O[C@@H]1O[C@H](CO)[C@@H](O)[C@H](O)[C@H]1O[C@@H]1O[C@H](CO)[C@@H](O)[C@H](O)[C@H]1O)C3 [Stevioside], the after-taste [1] is given as “bitter after-taste” and the “times sweeter than sucrose” value [1] is given as 100-150 times.
In the case of C=C1C[C@@]23CCC4[C@](C)(C(=O)OC5OC(CO)C(O)C(O)C5OC5OC(CO)C(O)C(O)C5O)CCC[C@@]4(C)[C@@H]2CCC1(OC1OC(COC2OC(CO)C(O)C(O)C2O)C(O)C(O)C1OC1OC(CO)C(O)C(O)C1O)C3 (stereo partly drawn) [Reb D3, 13-[(2-O-β-D-glucopyranosyl-6-O-β-D-glucopyranosyl-β-D-glucopyranosyl)oxy] ent-kaur-16-en-19-oic acid-(2-O-β-D-glucopyranosyl-β-D-glucopyranosyl) ester], the “overall % sweetness equivalence (SE) average” value ([2]; 300 ppm in bottled water) was “about 2.4%”, the “overall % sweetness equivalence (SE) average” value ([2]; 600 ppm in bottled water) was roughly 5.4% and the “times sweeter to sucrose” value ([2]; from SE at 300 and 600 ppm) was 80-90 times. The “solubility in water compared with Reb D” value [3] was “higher solubility in water than does Reb D” and the dissolution in water ([3]; solutions of 0.25 mM, 0.5 mM, 1 mM, 1.5 mM, 2 mM, 5 mM and 10 mM in water) was “completely dissolved in water immediately”.
In the case of C=C1C[C@@]23CC[C@H]4[C@@](C)(CCC[C@@]4(C)C(=O)O[C@@H]4O[C@H](CO)[C@@H](O)[C@H](O)[C@H]4O)[C@@H]2CC[C@]1(O[C@@H]1O[C@H](CO)[C@@H](O)[C@H](O[C@@H]2O[C@H](CO)[C@@H](O)[C@H](O)[C@H]2O)[C@H]1O[C@@H]1O[C@H](CO)[C@@H](O)[C@H](O)[C@H]1O)C3 [Rebaudioside A], the after-taste [1] is listed as “less of an after-taste than stevioside”.
For C=C1C[C@@]23CC[C@H]4[C@@](C)(CCC[C@@]4(C)C(=O)O[C@@H]4O[C@H](CO)[C@@H](O)[C@H](O)[C@H]4O[C@@H]4O[C@H](CO)[C@@H](O)[C@H](O)[C@H]4O)[C@@H]2CC[C@]1(O[C@@H]1O[C@H](CO)[C@@H](O)[C@H](O[C@@H]2O[C@H](CO)[C@@H](O)[C@H](O)[C@H]2O)[C@H]1O[C@@H]1O[C@H](CO)[C@@H](O)[C@H](O)[C@H]1O)C3 [Reb D, Rebaudioside D], the “dissolution in water when heated” value ([3]; 0.5 mM, 1 mM, 1.5 mM, 2 mM, 5 mM and 10 mM, heated at 30° C. for 72 hours) was “did not dissolve” and the “concentration that totally dissolved in water” value ([3]; tested 0.25-10 mM in water) was 250 µM.
For C=C1C[C@@]23CC[C@H]4[C@@](C)(CCC[C@@]4(C)C(=O)O[C@@H]4O[C@H](CO)[C@@H](O)[C@H](O)[C@H]4O)[C@@H]2CC[C@]1(O[C@@H]1O[C@H](CO)[C@@H](O)[C@H](O)[C@H]1O[C@@H]1O[C@@H](C)[C@H](O)[C@@H](O)[C@H]1O)C3 [Dulcoside A], the “times sweeter than sucrose” value [1] is listed as “about 30 times”.
For C=C1C[C@@]23CCC4[C@](C)(C(=O)OC5OC(CO)C(O)C(O)C5OC5OC(CO)C(O)C(O)C5O)CCC[C@@]4(C)[C@@H]2CCC1(OC1OC(CO)C(O)C(O)C1OC1OC(CO)C(O)C(O)C1O)C3 (stereo partly shown) [rebaudioside E, Rebaudioside E], the after-taste [1] is listed as “less of an after-taste than stevioside”.

Reference: US10941174B2, “Non-caloric sweetener” (Conagen Inc., priority 2014, dated 2021)
